Read-outs that look alike come from different tables or passages of the source.
Columns and labels:
Assay type in all cases: cell-based
[1] = molecular target: hGLP-1R (Homo sapiens, UniProt P43220); experiment: Functional cAMP formation (HTRF) in HEK-293 clonal cells expressing hGLP-1R, 0.1% bovine casein, without or with 1.0% human serum albumin; design: expressed in transfected cells
How it was run: (§1)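 Cells were stimulated with peptide for 30 min at 37° C, then lysed in buffer carrying cAMP-d2 and anti-cAMP Eu3+-cryptate for a competitive HTRF read after at least 60 min at room temperature. The 665/620 nm ratio was converted to nM cAMP against a standard curve.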

[2] = molecular target: T1, hGIPR (Homo sapiens, UniProt P48546); experiment: Functional cAMP formation (HTRF) in HEK-293 clonal cells expressing hGIPR, 0.1% bovine casein, without or with 1.0% human serum albumin; details: for EC50: cAMP, 0.1% bovine casein (no human serum albumin), geometric mean
T1 construct: expressed in transfected cells
T1 sequence (P48546 22-466): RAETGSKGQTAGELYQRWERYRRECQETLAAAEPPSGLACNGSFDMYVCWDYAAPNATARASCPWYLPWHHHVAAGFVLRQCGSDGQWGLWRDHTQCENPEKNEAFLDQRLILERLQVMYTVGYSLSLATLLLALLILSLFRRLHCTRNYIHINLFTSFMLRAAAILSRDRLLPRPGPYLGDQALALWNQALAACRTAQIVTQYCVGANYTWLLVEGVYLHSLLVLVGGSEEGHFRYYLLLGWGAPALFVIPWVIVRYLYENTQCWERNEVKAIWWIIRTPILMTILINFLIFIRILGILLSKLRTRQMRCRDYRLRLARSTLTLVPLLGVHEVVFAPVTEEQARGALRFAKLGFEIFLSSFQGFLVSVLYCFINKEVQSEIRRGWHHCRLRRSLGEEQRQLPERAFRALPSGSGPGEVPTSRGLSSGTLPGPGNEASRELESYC
How it was run: as §1

[3] = molecular target: T2, hGCGR (Homo sapiens, UniProt P47871); experiment: Functional cAMP formation (HTRF) in HEK-293 clonal cells expressing hGCGR, 0.1% bovine casein, without or with 1.0% human serum albumin
T2 construct: expressed in transfected cells
How it was run: as §1

T2 sequence (P47871 26-477): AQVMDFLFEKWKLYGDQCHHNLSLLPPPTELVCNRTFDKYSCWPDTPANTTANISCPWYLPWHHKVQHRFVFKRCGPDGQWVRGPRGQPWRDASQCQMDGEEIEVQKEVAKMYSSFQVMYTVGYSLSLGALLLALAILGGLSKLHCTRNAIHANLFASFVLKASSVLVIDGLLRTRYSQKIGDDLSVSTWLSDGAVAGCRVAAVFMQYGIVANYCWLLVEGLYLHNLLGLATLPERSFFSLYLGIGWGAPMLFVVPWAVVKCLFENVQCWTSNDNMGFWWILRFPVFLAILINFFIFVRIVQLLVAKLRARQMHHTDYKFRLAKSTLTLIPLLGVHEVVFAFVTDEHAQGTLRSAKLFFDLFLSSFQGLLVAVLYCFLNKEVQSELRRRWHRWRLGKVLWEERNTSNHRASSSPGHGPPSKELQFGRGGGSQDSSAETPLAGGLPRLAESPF
hGLP-1R, sequence (P43220 24-463): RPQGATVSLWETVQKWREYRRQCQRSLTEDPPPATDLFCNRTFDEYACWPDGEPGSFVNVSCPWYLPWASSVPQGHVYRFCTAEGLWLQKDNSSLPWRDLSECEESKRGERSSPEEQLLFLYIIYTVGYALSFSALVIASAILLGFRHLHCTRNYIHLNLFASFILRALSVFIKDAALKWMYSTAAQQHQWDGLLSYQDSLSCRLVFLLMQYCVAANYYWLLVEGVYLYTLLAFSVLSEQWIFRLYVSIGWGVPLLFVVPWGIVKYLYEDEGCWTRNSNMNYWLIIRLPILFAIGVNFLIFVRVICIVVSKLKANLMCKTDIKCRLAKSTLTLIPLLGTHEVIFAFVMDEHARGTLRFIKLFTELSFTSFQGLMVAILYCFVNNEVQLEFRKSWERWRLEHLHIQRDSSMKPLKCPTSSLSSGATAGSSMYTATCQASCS

CC[C@H](C)[C@H](NC(=O)[C@H](CC(C)C)NC(=O)[C@](C)(Cc1ccc(O)cc1)NC(=O)[C@@H](CCC(=O)O)NC(=O)[C@@H](NC(=O)[C@H](Cc1ccccc1)NC(=O)[C@H](CCCCNC(=O)COCCOCCNC(=O)CC[C@H](NC(=O)CCCCCCCCCCCCC(=O)O)C(=O)O)NC(=O)C(C)(C)NC(=O)[C@H](CCC(N)=O)NC(=O)[C@H](C)NC(=O)[C@H](CCCCNC(=O)COCCOCCNC(=O)CC[C@H](NC(=O)CCCCCCCCCCCCC(=O)O)C(=O)O)NC(=O)[C@H](CCCN)NC(=O)[C@H](CC(=O)O)NC(=O)[C@H](CC(C)C)NC(=O)[C@](C)(CC(C)C)NC(=O)[C@@H](NC(=O)C(C)(C)NC(=O)[C@@H](NC(=O)[C@H](CC(=O)O)NC(=O)[C@H](CO)NC(=O)[C@@H](NC(=O)[C@](C)(Cc1ccccc1F)NC(=O)[C@@H](NC(=O)CNC(=O)[C@H](CCC(=O)O)NC(=O)C(C)(C)NC(=O)[C@@H](N)Cc1ccc(O)cc1)[C@@H](C)O)[C@@H](C)O)C(C)C)[C@@H](C)CC)[C@@H](C)CC)C(=O)N[C@@H](CCC(=O)O)C(=O)NCC(=O)NCC(=O)N1CCC[C@H]1C(=O)N[C@@H](CO)C(=O)N[C@@H](CO)C(=O)NCC(=O)N[C@@H](C)C(=O)N1CCC[C@H]1C(=O)N1CCC[C@H]1C(=O)N1CCC[C@H]1C(=O)N[C@@H](CO)C(N)=O [Example 398]
EC50 ([1]; cAMP, 37° C., 0.1% bovine casein (no human serum albumin), geometric mean, read-out: hGLP-1R EC50, nM (SEM, n)): 0.215 nM
EC50 ([1]; cAMP, 37° C., 0.1% bovine casein and 1.0% human serum albumin, geometric mean (SEM, n), read-out: hGLP-1R EC50, nM (SEM, n)): 41.3 nM
Emax ([2]; HEK293, cAMP, 37° C., 0.1% bovine casein and 1.0% human serum albumin, percent of maximal response to GIP(1-42)NH2, read-out: hGIPR Emax, % ± SEM): 91.9%
Emax ([2]; HEK293, cAMP, 37° C., 0.1% bovine casein, percent of maximal response to GIP(1-42)NH2, arithmetic mean, read-out: hGIPR Emax, % ± SEM): 97.4%
EC50 ([2]; 37° C., read-out: hGIPR EC50, nM (SEM, n)): 0.0166 nM
EC50 ([3]; cAMP, 37° C., 0.1% bovine casein (no human serum albumin), geometric mean, read-out: hGCGR EC50, nM (SEM, n)): > 9950 nM
EC50 ([3]; cAMP, 37° C., 0.1% bovine casein and 1.0% human serum albumin, geometric mean (SEM, n), read-out: hGCGR EC50, nM (SEM, n)): > 9950 nM

CC[C@H](C)[C@H](NC(=O)[C@H](CC(C)C)NC(=O)[C@](C)(Cc1ccc(O)cc1)NC(=O)[C@@H](CCC(=O)O)NC(=O)[C@@H](NC(=O)[C@H](Cc1ccccc1)NC(=O)[C@H](CCC(=O)O)NC(=O)C(C)(C)NC(=O)[C@H](CCC(N)=O)NC(=O)[C@H](C)NC(=O)[C@H](CCCCNC(=O)COCCOCCNC(=O)COCCOCCNC(=O)CC[C@H](NC(=O)CCCCCCCCCOc1ccc(C(=O)O)cc1)C(=O)O)NC(=O)[C@H](CCCN)NC(=O)[C@H](CC(=O)O)NC(=O)[C@H](CC(C)C)NC(=O)[C@](C)(CC(C)C)NC(=O)[C@@H](NC(=O)C(C)(C)NC(=O)[C@H](Cc1ccncc1)NC(=O)[C@H](CC(=O)O)NC(=O)[C@H](CO)NC(=O)[C@@H](NC(=O)[C@](C)(Cc1ccccc1F)NC(=O)[C@@H](NC(=O)CNC(=O)[C@H](CCC(=O)O)NC(=O)C(C)(C)NC(=O)[C@@H](N)Cc1ccc(O)cc1)[C@@H](C)O)[C@@H](C)O)[C@@H](C)CC)[C@@H](C)CC)C(=O)N[C@@H](CCC(=O)O)C(=O)NCC(=O)NCC(=O)N1CCC[C@H]1C(=O)N[C@@H](CO)C(=O)N[C@@H](CO)C(=O)NCC(=O)N[C@@H](C)C(=O)N1CCC[C@H]1C(=O)N1CCC[C@H]1C(=O)N1CCC[C@H]1C(=O)N[C@@H](CO)C(=O)N[C@@H](CCCCNC(=O)COCCOCCNC(=O)COCCOCCNC(=O)CC[C@H](NC(=O)CCCCCCCCCOc1ccc(C(=O)O)cc1)C(=O)O)C(N)=O [Example 245]
Emax ([1]; HEK293, read-out: hGLP-1R Emax, % ± SEM, 0.1% bovine casein and 1.0% human serum albumin, 37° C., percent of maximal response to GLP-1(7-36)NH2): 93.8%
Emax ([1]; HEK293, read-out: hGLP-1R Emax, % ± SEM, percent of maximal response to GLP-1(7-36)NH2, 37° C., 0.1% bovine casein, arithmetic mean): 88.9%
EC50 ([1]; hGLP-1R EC50, nM (SEM, n), 0.1% bovine casein and 1.0% human serum albumin, 37° C., geometric mean): 27 nM
EC50 ([1]; hGLP-1R EC50, nM (SEM, n), cAMP, incubated at 37° C., 0.1% bovine casein (no human serum albumin), geometric mean): 1.88 nM
Emax ([2]; HEK293, read-out: hGIPR Emax, % ± SEM, 0.1% bovine casein and 1.0% human serum albumin, 37° C., percent of maximal response to GIP(1-42)NH2): 81.9%
Emax ([2]; HEK293, read-out: hGIPR Emax, % ± SEM, percent of maximal response to GIP(1-42)NH2, 37° C., 0.1% bovine casein, arithmetic mean): 96.7%
EC50 ([2]; hGIPR EC50, nM (SEM, n), incubated at 37° C.): 0.0195 nM
EC50 ([3]; hGCGR EC50, nM (SEM, n), 0.1% bovine casein and 1.0% human serum albumin, 37° C., geometric mean): > 9950 nM
EC50 ([3]; hGCGR EC50, nM (SEM, n), cAMP, incubated at 37° C., 0.1% bovine casein (no human serum albumin), geometric mean): > 9950 nM

From patent publication US20230265151A1, “GIP/GLP1 CO-AGONIST COMPOUNDS” (priority 2020, published 2023)
